Reference: US12048306B1, “1,3-bis(naphthalen-1-yloxy)propan-2-one as an eco-friendly insecticidal agent against Spodoptera littoralis (boisd.)” (priority 2023, dated 2024)
In brackets after ≈: the same amount, converted by molar mass. Where two headings read alike, the source gives them in different places.

How the values were obtained:
Spodoptera littoralis [1] = experiment: Insecticidal leaf dip bioassay on S. littoralis larvae; conditions: for Toxicity ratio: 72 hours, fenoxycarb's LC50 / the compound's LC50; for LC50: Spodoptera littoralis, foliar, laboratory strain, 72 hours of treatment
Experimental: (§1) Five concentrations (200, 100, 50, 25, 12.5 ppm) were designed for this synthetic compound and the reference fenoxycarb's compound as the dynamic ingredients based on ppm via diluting the commercial formulation.
(§2) In this experiment, the synthetic compound was tested for its insecticidal bioactivity using the industry-standard leaf dip bioassay techniques. […] Until usage, the stocks were kept in a refrigerator. The target substance test results were noted & the concentrations needed to destroy 50% (LC50) of S. littoralis larvae were calculated. The target compound was employed in five different concentrations, & 0.1% Tween 80 was employed as a surfactant. Castor bean leaf discs (nine centimeters in diameter) were dipped in the concentration under test for ten seconds, then fed to 2th & 4th larvae, which were roughly the same size and housed in glass jars (five pound). Each action carried out 3 times with ten larvae each. The mortality equalized via Abbott's formula. Calculations of mortality setback line were measurably rummage via probity analysis. Harmfulness index was strongminded via sun equations. The mortality results of larval insect were estimated through employing probit analysis through a statistics (LDP-line) equation which estimate the LC50 values with 95% fiducially limits of lower, upper confidence limit and slope.

Spodoptera littoralis [2] = conditions: in vivo
Experimental: as §1, §2

aquatic insects = conditions: highly toxic to very highly toxic; cited from earlier work

Row | Structure (SMILES) | Toxicity ratio (Spodoptera littoralis [1]; 2nd instar larvae) | Toxicity ratio (Spodoptera littoralis [1]; 4th instar larvae) | LC50 (Spodoptera littoralis [1]; 72 h, 2nd instar larvae) [µg/mL] | LC50 (Spodoptera littoralis [1]; 72 h, 4th instar larvae) [µg/mL] | insecticidal activity against Spodoptera littoralis (Spodoptera littoralis [1]; 2nd and 4th instar larvae, 72 h, FIGS. 1A-1B, compared with the reference insecticide) | LC50 (Spodoptera littoralis [2]) | LC50 (aquatic insects) [µg/mL]
1 | CCOC(=O)NCCOc1ccc(Oc2ccccc2)cc1 [Fenoxycarb, fenoxycarb, reference compound] | 1 | 1 | 2.73 (≈ 9.06 µM) | 9.18 (≈ 30.5 µM) |  |  | 
2 | O=C(COc1cccc2ccccc12)COc1cccc2ccccc12 [III, 1,3-bis(naphthalen-1-yloxy)propan-2-one] | 0.241 | 0.515 | 11.3 (≈ 33.1 µM) | ~17.8 (≈ 52 µM) | active | about 11.32 mg/L | 
3 | CCc1ccc(C(=O)NN(C(=O)c2cc(C)cc(C)c2)C(C)(C)C)cc1 [tebufenozide] |  |  |  |  |  |  | 100 to 1000
